Patent US20070299103A1, “[1,2,4]Triazolo[4,3-A]Pyridine Derivatives for the Treatment of Hyperproliferative Diseases” (priority 2004, published 2007)

Key:
[1] = tested on: human melanoma Mel5 cells; experiment: Tumor cell proliferation assay (ATP Lite), Mel5; assay type: cell-based; conditions: 4 days incubation
Protocol: (§1) Murine colon C26, human melanoma A375 and human melanoma Mel5 cells were plated in 96 well Corning white plates (1500 cells/well for C26, and 2000 cells/well for A375, and MiaPaCa-2) and cultured overnight at 37° C. in 5% CO2. Inhibitors were serially diluted in 100% DMSO and subsequently added to cells to reach a final concentration of 0.25% DMSO. The cells were incubated for 4 days in the presence of test compounds in cell growth media (DMEM with 10% fetal bovine serum, 2 mM glutamine for C26, and MiaPaCa-2, and RPMI with 10% fetal bovine serum, 2 mM glutamine for A375). Cell proliferation was quantitated using the ATP lite cell proliferation kit (Packard). Columns 2-4 show the concentration of compounds required to induce 50% cell death (IC50 in μM) of human endometriotic cells. With “+” meaning 100 μM<IC50≦10 μM and “++” IC50≦1 μM and “n.d.” means not determined.

[2] = tested on: Caco-2 cells; experiment: Caco-2 permeability assay; assay type: in vitro ADME; conditions: 10 μM, pH 7.4, 120 minutes
Protocol: Caco-2 cells obtained from the ATCC at passage number 27 are used. Cells (passage number 40-60) were seeded on to Millipore Multiscreen Caco-2 plates or Falcon HTS inserts at 1×10^5 cells/cm2. Cells were cultured for 20 days in DMEM and media was changed every two or three days. On day 20 the permeability study was performed.
Permeability was studied by applying compound to the apical surface of cell monolayers and measuring compound permeation into the basolateral compartment. The experiment was also performed in the reverse direction (B-A) to investigate active transport. […]
HBSS was then removed from the apical compartment and replaced with test compound dosing solutions. […] Test compound permeability was assessed in duplicate. […]
The integrity of the monolayers throughout the experiment is checked by monitoring lucifer yellow permeation using fluorimetric analysis. […] Test and control compounds were quantified by LC-MS/MS cassette analysis using a 5-point calibration with appropriate dilution of the samples. […]
The permeability coefficient for each compound (Papp) was calculated from the following equation: Papp=[dQ/dt]/[C0×A] […]
Wherein “+” means a caco A-B and caco B-A value of 1-10 and “++” means a caco A-B and caco B-A value of 11-100 and “n.d.” means not determined.

[3] = Microsomal stability assay, human liver microsomes; assay type: in vitro ADME; conditions: pooled human liver microsomes, pH 7.4; 3 μM compound, 0.5 mg/ml human liver microsomes, 37° C., 2 mM NADPH; read-out: HLM t½
Protocol: (§2) Compounds were tested on their stability in human, rat and mouse liver microsomal preparations (HLM, RLM and MLM respectively). At a final concentration of 3 μM, compounds were incubated at 37° C. with 0.5 mg/ml human, rat or mouse liver microsomes in a buffer containing 50 mM phosphate, pH 7.4 and 2 mM NADPH. Pooled human liver microsomes or pooled male rat liver microsomes (Sprague Dawley) were obtained from NatuTec (Frankfurt, Germany). Incubations without NADPH served as negative controls. Reactions were stopped after 0, 15, 30, 45 or 60 min by the addition of acetonitrile and microsomes were pelleted by centrifugation (10 min at 6200×g). Supernatants were analyzed by HPLC regarding the concentration of mother compound. Finally, the half-life of compounds in the regarding microsomal preparation was calculated.

[4] = tested on: Murine colon C26 cells; experiment: Tumor cell proliferation assay (ATP Lite), C26; assay type: cell-based; conditions: 4 days incubation
Protocol: as §1

[5] = tested on: human melanoma A375 cells; experiment: Tumor cell proliferation assay (ATP Lite), A375; assay type: cell-based; conditions: 4 days incubation
Protocol: as §1

[6] = molecular target: human MEK1 (Homo sapiens, UniProt Q02750); experiment: Inhibition of human MEK1 kinase activity, TR-FRET assay; assay type: biochemical; conditions: 100 nM MEK1, 15 μM ATP, 300 nM ERK2, two hours; read-out: Inhibition of MEK, Activity (IC50)
Sequence of human MEK1 (Q02750 whole entry): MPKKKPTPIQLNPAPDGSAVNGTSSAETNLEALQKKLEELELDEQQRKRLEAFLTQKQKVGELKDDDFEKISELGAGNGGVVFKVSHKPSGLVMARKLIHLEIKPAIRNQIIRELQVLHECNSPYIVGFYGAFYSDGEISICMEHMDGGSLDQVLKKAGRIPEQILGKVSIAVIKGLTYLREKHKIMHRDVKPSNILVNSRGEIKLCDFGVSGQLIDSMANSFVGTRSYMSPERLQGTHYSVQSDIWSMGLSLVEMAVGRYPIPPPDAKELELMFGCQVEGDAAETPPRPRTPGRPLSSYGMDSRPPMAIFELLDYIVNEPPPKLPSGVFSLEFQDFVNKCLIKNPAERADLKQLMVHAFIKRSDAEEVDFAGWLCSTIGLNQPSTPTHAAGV
Protocol: The activity of the compounds of the present invitation may be determined by the following procedure: Inhibition of human MEK1 kinase activity was monitored with a homogenous, fluorescence based assay. The assay uses time resolved fluorescence resonance energy transfer to probe for phosphorylation of ERK1 by MEK1. The assay is carried out in low volume 96 well microtiterplates. In a total volume of 15 μl, compounds are incubated with 100 nM MEK1, 15 μM ATP, 300 nM ERK2 employing a buffer containing 20 mM TRIS/HCl, 10 mM MgCl2, 100 μM NaVO4, 1 mM DTT, and 0.005% Tween 20 (pH 7.4). After two hours, 5 nM Europium-anti-PY20 (Perkin Elmer) and 50 nM Anti-GST-Allophycocyanin (CisBio) in buffer containing 50 mM EDTA and 0.05% BSA are added and the reaction incubated for one hour in the dark. Time-resolved fluorescence is measured using a LJL-Analyst (Molecular Devices) with an excitation wavelength of 340 nm and an emission wavelength of 665 nm. The final concentration of DMSO is 2%. To assess the inhibitory potential of the compounds, IC50-values were determined.
The following compounds exemplify such activity with “+” meaning 1 μM<IC50≦10 μM and “++” IC50≦1 μM

[7] = Microsomal stability assay, rat liver microsomes; assay type: in vitro ADME; conditions: male, Sprague Dawley, pooled rat liver microsomes, pH 7.4; 3 μM compound, 0.5 mg/ml rat liver microsomes, 37° C., 2 mM NADPH; read-out: RLM t½
Protocol: as §2

[8] = in vivo; cited from earlier work
[9] = tested on: Tumors; conditions: patients; cited from earlier work

Mel5 cells IC50 [1]	half-life at 3 μM [3]	C26 cells IC50 [4]	A375 cells IC50 [5]	IC50 [6]	half-life at 3 μM [7]	SMILES	Caco A-B ([2]; apical to basolateral)	Caco B-A ([2]; basolateral to apical)	bioavailability [8]	efficacy in clinical phase II trials [9]
+ (100 μM<IC50≦10 μM)		+ (100 μM<IC50≦10 μM)	+ (100 μM<IC50≦10 μM)	≤ 1000 nM		Cc1cc(Br)ccc1Nc1cc2nnc(C)n2cc1C(=O)NO [Compound 3a, 7-[(4-Bromo-2-methylphenyl)amino]-N-hydroxy-3-methyl[1,2Z4]triazolo[4,3-a]pyridine-6-carboxamide]				
				≤ 1000 nM		Cc1cc(I)ccc1Nc1cc2nnc(C)n2cc1C(=O)NOC[C@H](O)CO [Compound 3c, 7-[(4-Iodo-2-methylphenyl)amino]-N-([(2R)-2,3-dihydroxypropyl]oxy)-3-methyl[1,2,4]triazolo[4,3-a]pyridine-6-carboxamide]				

Second part, the compound before the results:

SMILES	Mel5 cells IC50 [1]	half-life at 3 μM [3]	C26 cells IC50 [4]	A375 cells IC50 [5]	IC50 [6]	half-life at 3 μM [7]	Caco A-B ([2]; apical to basolateral)	Caco B-A ([2]; basolateral to apical)	bioavailability [8]	efficacy in clinical phase II trials [9]
Cc1cc(Br)ccc1Nc1cc2nnc(C)n2cc1C(=O)NOC[C@@H](O)CO [Compound 3b, 7-[(4-Bromo-2-methylphenyl)amino]-N-([(2S)-2,3-dihydroxypropyl]oxy)-3-methyl[1,2,4]triazolo[4,3-a]pyridine-6-carboxamide]	+ (100 μM<IC50≦10 μM)	> 2 h	+ (100 μM<IC50≦10 μM)	+ (100 μM<IC50≦10 μM)	1000 to 10000 nM	> 2 h	+ (a caco A-B and caco B-A value of 1-10)	+ (a caco A-B and caco B-A value of 1-10)		
Cc1cc(Br)ccc1Nc1cc2nnc(C)n2cc1C(=O)O [Compound 2a, 7-[(4-Bromo-2-methylphenyl)amino]-3-methyl[1,2,4]triazolo[4,3-a]pyridine-6-carboxylic acid]	+ (100 μM<IC50≦10 μM)		+ (100 μM<IC50≦10 μM)	+ (100 μM<IC50≦10 μM)	1000 to 10000 nM					
O=C(NOCC1CC1)c1ccc(F)c(F)c1Nc1ccc(I)cc1Cl [PD-184352]									low bioavailability	lacking efficacy
